According to paper PMC11124822, “Discovery and Anticancer Screening of Novel Oxindole-Based Derivative Bearing Pyridyl Group as Potent and Selective Dual FLT3/CDK2 Kinase Inhibitor” (Pharmaceuticals, 2024):
Like-named read-outs stand apart in the source and are kept apart here.

Tests used:
Assay in all cases: NCI-60 antiproliferative screen (SRB)
KM12 = assay type: cell-based, human; settings: 48 h
CAKI-1 = assay type: cell-based, human; settings: 48 h
MDA-MB-231 = assay type: cell-based, human; settings: 48 h
SK-MEL-28 = assay type: cell-based, human
SF-295 = assay type: cell-based, human; settings: 48 h
NCI/ADR-RES = assay type: cell-based, human; settings: 48 h
SF-539 = assay type: cell-based, human; settings: 48 h
RPMI-8226 = assay type: cell-based, human; settings: 48 h
PC-3 = assay type: cell-based, human; settings: 48 h
DU-145 = assay type: cell-based, human; settings: 48 h
U251 = assay type: cell-based, human; settings: 48 h
SK-MEL-2 = assay type: cell-based, human; settings: 48 h
MALME-3M = assay type: cell-based, human; settings: five-dose, 48 h, MELME-3M
SW-620 = assay type: cell-based, human; settings: 48 h
MOLT-4 = assay type: cell-based; settings: Homo sapiens, 48 h
MCF7 = assay type: cell-based, human; settings: 48 h
RXF 393 = assay type: cell-based, human; settings: 48 h
UACC-257 = assay type: cell-based, human; settings: 48 h
UO-31 = assay type: cell-based, human; settings: five-dose, 48 h, UO-31
MDA-MB-468 = assay type: cell-based, human; settings: 48 h
M14 = assay type: cell-based, human; settings: 48 h
OVCAR-8 = assay type: cell-based, human; settings: 48 h
OVCAR-3 = assay type: cell-based, human; settings: 48 h
HCT-116 = assay type: cell-based, human; settings: 48 h
OVCAR-4 = settings: Homo sapiens, OVCAR-4, 48 h, read-out: Growth inhibition (%)
A498 = assay type: cell-based, human; settings: 48 h
HCC-2998 = assay type: cell-based, human; settings: 48 h
HOP-62 = assay type: cell-based, human; settings: 48 h
SR = settings: Homo sapiens, 48 h, read-out: Growth inhibition (%)
OVCAR-5 = assay type: cell-based, human; settings: 48 h

O=C1Nc2cc(Cl)ccc2C1=Cc1ccc(OCc2cccnc2)cc1 (mixture of isomers) [Compound 5l, (E/Z)-6-Chloro-3-[4-(pyridin-3-ylmethoxy)benzylidene] indolin-2-one]
inhibition at 10 µM (KM12; Homo sapiens, 10 µM single dose, KM12 (Colon), read-out: Growth inhibition (%)): 99.7%
GI50 (KM12; Homo sapiens, five-dose, KM12): 5.3 µM
TGI (KM12; five-dose, KM12): >100 µM
inhibition at 10 µM (CAKI-1; Homo sapiens, 10 µM single dose, CAKI-1 (Renal), read-out: Growth inhibition (%)): 69.8%
GI50 (CAKI-1; Homo sapiens, five-dose, CAKI-1): 4.44 µM
CC50 (CAKI-1; Homo sapiens, five-dose, CAKI-1, read-out: LC50 (the source's name)): > 100 µM
TGI (CAKI-1; five-dose, CAKI-1): 26.90 µM
inhibition at 10 µM (MDA-MB-231; Homo sapiens, 10 µM single dose, MDA-MB-231 (Breast), read-out: Growth inhibition (%)): 67.5%
GI50 (MDA-MB-231; Homo sapiens, five-dose, MDA-MB-231/ATCC): 15.8 µM
CC50 (MDA-MB-231; Homo sapiens, five-dose, MDA-MB-231/ATCC, read-out: LC50 (the source's name)): > 100 µM
TGI (MDA-MB-231; five-dose, MDA-MB-231/ATCC): >100 µM
CC50 (SK-MEL-28; Homo sapiens, SK-MEL-28, 48 h, five-dose, SK-MEL-28, read-out: LC50 (the source's name)): 71.5 µM
inhibition at 10 µM (SK-MEL-28; Homo sapiens, 10 µM single dose, 48 h, SK-MEL-28 (Melanoma), read-out: Growth inhibition (%)): 46.3%
GI50 (SK-MEL-28; Homo sapiens, five-dose, 48 h, SK-MEL-28): 12.3 µM
TGI (SK-MEL-28; five-dose, 48 h, SK-MEL-28): 28.50 µM
CC50 (SK-MEL-28; five-dose, 48 h, SK-MEL-28, read-out: LC50 (the source's name)): 65.6 µM
inhibition at 10 µM (SF-295; Homo sapiens, 10 µM single dose, SF-295 (CNS), read-out: Growth inhibition (%)): 63.3%
GI50 (SF-295; Homo sapiens, five-dose, SF-295): 10.6 µM
TGI (SF-295; five-dose, SF-295): 39.90 µM
inhibition at 10 µM (NCI/ADR-RES; Homo sapiens, 10 µM single dose, NCI/ADR-RES (Ovarian), read-out: Growth inhibition (%)): 112%
GI50 (NCI/ADR-RES; Homo sapiens, five-dose, NCI/ADR-RES): 3.45 µM
TGI (NCI/ADR-RES; five-dose, NCI/ADR-RES): 23.60 µM
inhibition at 10 µM (SF-539; Homo sapiens, 10 µM single dose, SF-539 (CNS), read-out: Growth inhibition (%)): 59.3%
GI50 (SF-539; Homo sapiens, five-dose, SF-539): 13.6 µM
TGI (SF-539; five-dose, SF-539): >100 µM
inhibition at 10 µM (RPMI-8226; Homo sapiens, 10 µM single dose, RPMI-8226 (Leukemia), read-out: Growth inhibition (%)): 95.5%
GI50 (RPMI-8226; Homo sapiens, five-dose, RPMI-8226): 3.09 µM
CC50 (RPMI-8226; Homo sapiens, five-dose, RPMI-8226, read-out: LC50 (the source's name)): > 100 µM
TGI (RPMI-8226; five-dose, RPMI-8226): >100 µM
inhibition at 10 µM (PC-3; Homo sapiens, 10 µM single dose, PC-3 (Prostate), read-out: Growth inhibition (%)): 67.1%
GI50 (PC-3; Homo sapiens, five-dose, PC-3): 6.37 µM
CC50 (PC-3; Homo sapiens, five-dose, PC-3, read-out: LC50 (the source's name)): > 100 µM
TGI (PC-3; five-dose, PC-3): >100 µM
inhibition at 10 µM (DU-145; Homo sapiens, 10 µM single dose, DU-145 (Prostate), read-out: Growth inhibition (%)): 58.6%
GI50 (DU-145; Homo sapiens, five-dose, DU-145): 13.2 µM
TGI (DU-145; five-dose, DU-145): 54.90 µM
inhibition at 10 µM (U251; Homo sapiens, U-251, 10 µM single dose, U251 (CNS), read-out: Growth inhibition (%)): 76.4%
GI50 (U251; Homo sapiens, U-251, five-dose, U251): 7.55 µM
CC50 (U251; Homo sapiens, U-251, five-dose, U251, read-out: LC50 (the source's name)): > 100 µM
TGI (U251; five-dose, U251): 39.40 µM
inhibition at 10 µM (SK-MEL-2; Homo sapiens, 10 µM single dose, SK-MEL-2 (Melanoma), read-out: Growth inhibition (%)): 66.2%
GI50 (SK-MEL-2; Homo sapiens, five-dose, SK-MEL-2): 9.67 µM
CC50 (SK-MEL-2; Homo sapiens, five-dose, SK-MEL-2, read-out: LC50 (the source's name)): > 100 µM
TGI (SK-MEL-2; five-dose, SK-MEL-2): 65.90 µM
GI50 (MALME-3M; Homo sapiens, Malme-3M): 18.9 µM
TGI (MALME-3M): 75.70 µM
inhibition at 10 µM (SW-620; Homo sapiens, 10 µM single dose, SW-620 (Colon), read-out: Growth inhibition (%)): 92.7%
GI50 (SW-620; Homo sapiens, five-dose, SW-620): 2.76 µM
TGI (SW-620; five-dose, SW-620): >100 µM
inhibition at 10 µM (MOLT-4; 10 µM single dose, MOLT-4 (Leukemia), read-out: Growth inhibition (%)): 98.1%
GI50 (MOLT-4; five-dose, MOLT-4): 2.99 µM
CC50 (MOLT-4; five-dose, MOLT-4, read-out: LC50 (the source's name)): > 100 µM
inhibition at 10 µM (MCF7; Homo sapiens, 10 µM single dose, MCF7 (Breast), read-out: Growth inhibition (%)): 90.5%
GI50 (MCF7; Homo sapiens, five-dose, MCF7): 2.9 µM
CC50 (MCF7; Homo sapiens, five-dose, MCF7, read-out: LC50 (the source's name)): > 100 µM
TGI (MCF7; five-dose, MCF7): 30.90 µM
GI50 (RXF 393; Homo sapiens, RXF 393, five-dose, RXF393): 9.07 µM
CC50 (RXF 393; Homo sapiens, RXF 393, five-dose, RXF393, read-out: LC50 (the source's name)): > 100 µM
inhibition at 10 µM (RXF 393; Homo sapiens, 10 µM single dose, RXF 393 (Renal), read-out: Growth inhibition (%)): 63.4%
TGI (RXF 393; five-dose, RXF393): 90.20 µM
inhibition at 10 µM (UACC-257; Homo sapiens, 10 µM single dose, UACC-257 (Melanoma), read-out: Growth inhibition (%)): 76.7%
GI50 (UACC-257; Homo sapiens, five-dose, UACC-257): 8.06 µM
CC50 (UACC-257; Homo sapiens, five-dose, UACC-257, read-out: LC50 (the source's name)): > 100 µM
TGI (UACC-257; five-dose, UACC-257): 43.80 µM
GI50 (UO-31; Homo sapiens): 2.7 µM
CC50 (UO-31; Homo sapiens, read-out: LC50 (the source's name)): > 100 µM
TGI (UO-31): >100 µM
inhibition at 10 µM (MDA-MB-468; Homo sapiens, 10 µM single dose, MDA-MB-468 (Breast), read-out: Growth inhibition (%)): 85.7%
GI50 (MDA-MB-468; Homo sapiens, five-dose, MDA-MB-468): 3.76 µM
CC50 (MDA-MB-468; Homo sapiens, five-dose, MDA-MB-468, read-out: LC50 (the source's name)): > 100 µM
TGI (MDA-MB-468; five-dose, MDA-MB-468): 43.00 µM
inhibition at 10 µM (M14; Homo sapiens, 10 µM single dose, M14 (Melanoma), read-out: Growth inhibition (%)): 77.1%
GI50 (M14; Homo sapiens, five-dose, M14): 29 µM
TGI (M14; five-dose, M14): >100 µM
inhibition at 10 µM (OVCAR-8; Homo sapiens, 10 µM single dose, OVCAR-8 (Ovarian), read-out: Growth inhibition (%)): 88.6%
GI50 (OVCAR-8; Homo sapiens, five-dose, OVCAR-8): 7.96 µM
TGI (OVCAR-8; five-dose, OVCAR-8): 45.20 µM
inhibition at 10 µM (OVCAR-3; Homo sapiens, 10 µM single dose, OVCAR-3 (Ovarian), read-out: Growth inhibition (%)): 61.8%
GI50 (OVCAR-3; Homo sapiens, five-dose, OVCAR-3): 57.7 µM
CC50 (OVCAR-3; Homo sapiens, five-dose, OVCAR-3, read-out: LC50 (the source's name)): > 100 µM
TGI (OVCAR-3; five-dose, OVCAR-3): 2.26 µM
inhibition at 10 µM (HCT-116; Homo sapiens, 10 µM single dose, HCT-116 (Colon), read-out: Growth inhibition (%)): 93%
GI50 (HCT-116; Homo sapiens, five-dose, HCT-116): 6.97 µM
TGI (HCT-116; five-dose, HCT-116): >100 µM
inhibition at 10 µM (OVCAR-4): 68.4%
inhibition at 10 µM (A498; Homo sapiens, 10 µM single dose, A498 (Renal), read-out: Growth inhibition (%)): 8.9%
GI50 (A498; Homo sapiens, five-dose, A498): 18 µM
CC50 (A498; Homo sapiens, five-dose, A498, read-out: LC50 (the source's name)): > 100 µM
TGI (A498; five-dose, A498): 85.20 µM
inhibition at 10 µM (HCC-2998; Homo sapiens, 10 µM single dose, HCC-2998 (Colon), read-out: Growth inhibition (%)): 50.9%
GI50 (HCC-2998; Homo sapiens, five-dose, HCC-2998): 13.7 µM
CC50 (HCC-2998; Homo sapiens, five-dose, HCC-2998, read-out: LC50 (the source's name)): > 100 µM
TGI (HCC-2998; five-dose, HCC-2998): >100 µM
inhibition at 10 µM (HOP-62; Homo sapiens, 10 µM single dose, HOP-62 (NSCLC), read-out: Growth inhibition (%)): 72.9%
GI50 (HOP-62; Homo sapiens, five-dose, HOP-62): 12.9 µM
CC50 (HOP-62; Homo sapiens, five-dose, HOP-62, read-out: LC50 (the source's name)): > 100 µM
TGI (HOP-62; five-dose, HOP-62): >100 µM
inhibition at 10 µM (SR): 84.2%
inhibition at 10 µM (OVCAR-5; Homo sapiens, 10 µM single dose, OVCAR-5 (Ovarian), read-out: Growth inhibition (%)): 21.7%
GI50 (OVCAR-5; Homo sapiens, five-dose, OVCAR-5): 25 µM
TGI (OVCAR-5; five-dose, OVCAR-5): >100 µM
